Source: patent publication US20250235427A1, “5-METHOXY-N,N-[…][…] THE TREATMENT OF SOCIAL/EMOTIONAL […] DETACHMENT” (GH RESEARCH IRELAND LIMITED, priority 2022, published 2025)

Test: Pharmacokinetics after inhalation of 5-MeO-DMT, LC-MS/MS
Format: in vivo, human
Conditions: for plasma concentration as % of Cmax: whole dose range 6, 12, 18 mg

## COc1ccc2[nH]cc(CCN(C)C)c2c1 [5-MeO-DMT]
10 minutes after inhalation
  plasma concentration as % of Cmax: ≤ 10%
2 hours after inhalation
  plasma concentration as % of Cmax: ≤ 1%
Repeated administration within a time frame of 1 to 4 hours
  accumulation upon repeated administration: No accumulation is observed
